Measurements from PubChem BioAssay AID1963981 (Molecular Pharmacology Branch, DTP, NCI, 2024).
pIC50: −log10 of the molar value.

Tested on: 354836-022-R-J1-PDC multicell spheroid viability
Test: Anticancer human tumor 354836-022-R-J1-PDC patient-derived head and neck squamous cell carcinoma cell line growth inhibition [PI3K]
Settings: for pIC50: curve of first compound; for viability, T/C: stronger effect = lower value
Procedure, shortened: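 Spheroid viability read-out. Co-cultures contained the tumor line plus HUVEC and human MSCs. Each agent was paired with a PI3K inhibitor (inavolisib, alpelisib, duvelisib, copanlisib) across half-log dilutions starting at clinical Cmax, or at 10 microM when Cmax was unknown.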

[1] = second compound 0.0316 µM, first compound 0.0316 µM
[2] = second compound 0.0316 µM, first compound 0.1 µM
[3] = second compound 0.0316 µM, first compound 0.316 µM
[4] = second compound 0.0316 µM, first compound 1 µM
[5] = second compound 0.0316 µM, first compound 3.16 µM
[6] = second compound 0.0316 µM, first compound 10 µM
[7] = second compound 0.1 µM, first compound 0.0316 µM
[8] = second compound 0.1 µM, first compound 0.1 µM
[9] = second compound 0.1 µM, first compound 0.316 µM
[10] = second compound 0.1 µM, first compound 1 µM
[11] = second compound 0.1 µM, first compound 3.16 µM
[12] = second compound 0.1 µM, first compound 10 µM
[13] = second compound 0.316 µM, first compound 0.0316 µM
[14] = second compound 0.316 µM, first compound 0.1 µM
[15] = second compound 0.316 µM, first compound 0.316 µM
[16] = second compound 0.316 µM, first compound 1 µM
[17] = second compound 0.316 µM, first compound 3.16 µM
[18] = second compound 0.316 µM, first compound 10 µM
[19] = second compound 1 µM, first compound 0.0316 µM
[20] = second compound 1 µM, first compound 0.1 µM
[21] = second compound 1 µM, first compound 0.316 µM
[22] = second compound 1 µM, first compound 1 µM
[23] = second compound 1 µM, first compound 3.16 µM
[24] = second compound 1 µM, first compound 10 µM
[25] = second compound 3.16 µM, first compound 0.0316 µM
[26] = second compound 3.16 µM, first compound 0.1 µM
[27] = second compound 3.16 µM, first compound 0.316 µM
[28] = second compound 3.16 µM, first compound 1 µM
[29] = second compound 3.16 µM, first compound 3.16 µM
[30] = second compound 3.16 µM, first compound 10 µM
[31] = second compound 10 µM, first compound 0.0316 µM
[32] = second compound 10 µM, first compound 0.1 µM
[33] = second compound 10 µM, first compound 0.316 µM
[34] = second compound 10 µM, first compound 1 µM
[35] = second compound 10 µM, first compound 3.16 µM
[36] = second compound 10 µM, first compound 10 µM
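Further: spheroids exposed to agents for seven days before the viability read.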

CC(C)NCC(C(=O)N1CCN(c2ncnc3c2C(C)CC3O)CC1)c1ccc(Cl)cc1 (stereo not drawn) + Cc1nc(NC(=O)N2CCCC2C(N)=O)sc1-c1ccnc(C(C)(C)C(F)(F)F)c1
pIC50 (second compound 0.0316 µM): 6.62 | pIC50 (second compound 0.1 µM): 6.66 | pIC50 (second compound 0.316 µM): 6.65 | pIC50 (second compound 1 µM): 6.40 | pIC50 (second compound 3.16 µM): 6.94 | pIC50 (second compound 10 µM): > 7.50 | viability, T/C [1]: 96% | viability, T/C [2]: 64.5% | viability, T/C [3]: 50.7% | viability, T/C [4]: 22.4% | viability, T/C [5]: 18.8% | viability, T/C [6]: 12.2% | viability, T/C [7]: 78.9% | viability, T/C [8]: 57.3% | viability, T/C [9]: 51.4% | viability, T/C [10]: 24% | viability, T/C [11]: 17.5% | viability, T/C [12]: 10.2% | viability, T/C [13]: 79.3% | viability, T/C [14]: 65% | viability, T/C [15]: 42% | viability, T/C [16]: 29% | viability, T/C [17]: 16.8% | viability, T/C [18]: 6.96% | viability, T/C [19]: 59.7% | viability, T/C [20]: 73.8% | viability, T/C [21]: 54.1% | viability, T/C [22]: 27.9% | viability, T/C [23]: 18.5% | viability, T/C [24]: 6.41% | viability, T/C [25]: 53.7% | viability, T/C [26]: 53.2% | viability, T/C [27]: 40.2% | viability, T/C [28]: 22.7% | viability, T/C [29]: 13.2% | viability, T/C [30]: 6.1% | viability, T/C [31]: 34.4% | viability, T/C [32]: 32% | viability, T/C [33]: 24.8% | viability, T/C [34]: 13.5% | viability, T/C [35]: 8.39% | viability, T/C [36]: 4.1%

CCN1CCN(Cc2ccc(Nc3ncc(F)c(-c4cc(F)c5nc(C)n(C(C)C)c5c4)n3)nc2)CC1 + Cc1nc(NC(=O)N2CCCC2C(N)=O)sc1-c1ccnc(C(C)(C)C(F)(F)F)c1
pIC50 (second compound 0.0316 µM): < 6.00 | pIC50 (second compound 0.1 µM): < 6.00 | pIC50 (second compound 0.316 µM): < 6.00 | pIC50 (second compound 1 µM): 6.34 | pIC50 (second compound 3.16 µM): 6.49 | pIC50 (second compound 10 µM): > 8.50 | viability, T/C (second compound 0.0316 µM, first compound 0.00316 µM): 107% | viability, T/C (second compound 0.0316 µM, first compound 0.01 µM): 82.5% | viability, T/C [1]: 97.9% | viability, T/C [2]: 90.9% | viability, T/C [3]: 99.7% | viability, T/C [4]: 62.8% | viability, T/C (second compound 0.1 µM, first compound 0.00316 µM): 94.4% | viability, T/C (second compound 0.1 µM, first compound 0.01 µM): 82.5% | viability, T/C [7]: 91.5% | viability, T/C [8]: 77.7% | viability, T/C [9]: 91.8% | viability, T/C [10]: 69.1% | viability, T/C (second compound 0.316 µM, first compound 0.00316 µM): 87.6% | viability, T/C (second compound 0.316 µM, first compound 0.01 µM): 96.4% | viability, T/C [13]: 69.5% | viability, T/C [14]: 92% | viability, T/C [15]: 84.2% | viability, T/C [16]: 51.1% | viability, T/C (second compound 1 µM, first compound 0.00316 µM): 67.9% | viability, T/C (second compound 1 µM, first compound 0.01 µM): 90.8% | viability, T/C [19]: 63.2% | viability, T/C [20]: 67.8% | viability, T/C [21]: 59.5% | viability, T/C [22]: 33.3% | viability, T/C (second compound 3.16 µM, first compound 0.00316 µM): 51.9% | viability, T/C (second compound 3.16 µM, first compound 0.01 µM): 61.8% | viability, T/C [25]: 54.4% | viability, T/C [26]: 59.3% | viability, T/C [27]: 49.8% | viability, T/C [28]: 18.8% | viability, T/C (second compound 10 µM, first compound 0.00316 µM): 31.8% | viability, T/C (second compound 10 µM, first compound 0.01 µM): 36.6% | viability, T/C [31]: 35% | viability, T/C [32]: 28.9% | viability, T/C [33]: 25.2% | viability, T/C [34]: 9.14%

Cn1ncc(Cl)c1-c1cc(C(=O)NC(CN)Cc2cccc(F)c2)sc1Cl (stereo not drawn) + Cc1nc(NC(=O)N2CCCC2C(N)=O)sc1-c1ccnc(C(C)(C)C(F)(F)F)c1
pIC50 (second compound 0.0316 µM): 7.00 | pIC50 (second compound 0.1 µM): 6.98 | pIC50 (second compound 0.316 µM): 6.80 | pIC50 (second compound 1 µM): 6.94 | pIC50 (second compound 3.16 µM): 7.49 | pIC50 (second compound 10 µM): > 7.50 | viability, T/C [1]: 78.8% | viability, T/C [2]: 46.8% | viability, T/C [3]: 32.6% | viability, T/C [4]: 20.9% | viability, T/C [5]: 17.9% | viability, T/C [6]: 3.64% | viability, T/C [7]: 79.4% | viability, T/C [8]: 45% | viability, T/C [9]: 36.2% | viability, T/C [10]: 21.6% | viability, T/C [11]: 16.7% | viability, T/C [12]: 4.82% | viability, T/C [13]: 64.3% | viability, T/C [14]: 63.8% | viability, T/C [15]: 31.2% | viability, T/C [16]: 23% | viability, T/C [17]: 19.3% | viability, T/C [18]: 4.88% | viability, T/C [19]: 59.5% | viability, T/C [20]: 53.6% | viability, T/C [21]: 36.9% | viability, T/C [22]: 21.2% | viability, T/C [23]: 14.4% | viability, T/C [24]: 3.77% | viability, T/C [25]: 48.9% | viability, T/C [26]: 44.9% | viability, T/C [27]: 25.4% | viability, T/C [28]: 18.1% | viability, T/C [29]: 11.6% | viability, T/C [30]: 4.32% | viability, T/C [31]: 34.2% | viability, T/C [32]: 29.4% | viability, T/C [33]: 21.9% | viability, T/C [34]: 14.8% | viability, T/C [35]: 8.76% | viability, T/C [36]: 3.16%

Cn1nccc1Nc1nccc(-c2ccn(C(CO)c3ccc(Cl)c(F)c3)c(=O)c2)n1 (stereo not drawn) + Cc1nc(NC(=O)N2CCCC2C(N)=O)sc1-c1ccnc(C(C)(C)C(F)(F)F)c1
pIC50 (second compound 0.0316 µM): < 5.00 | pIC50 (second compound 0.1 µM): < 5.00 | pIC50 (second compound 0.316 µM): < 5.00 | pIC50 (second compound 1 µM): < 5.00 | pIC50 (second compound 3.16 µM): < 5.00 | pIC50 (second compound 10 µM): > 7.50 | viability, T/C [1]: 100% | viability, T/C [2]: 91% | viability, T/C [3]: 101% | viability, T/C [4]: 92.5% | viability, T/C [5]: 97.2% | viability, T/C [6]: 95.1% | viability, T/C [7]: 99.2% | viability, T/C [8]: 92.5% | viability, T/C [9]: 102% | viability, T/C [10]: 88.7% | viability, T/C [11]: 101% | viability, T/C [12]: 91.3% | viability, T/C [13]: 95% | viability, T/C [14]: 91.3% | viability, T/C [15]: 87.7% | viability, T/C [16]: 89.3% | viability, T/C [17]: 108% | viability, T/C [18]: 101% | viability, T/C [19]: 76.2% | viability, T/C [20]: 89.7% | viability, T/C [21]: 77.9% | viability, T/C [22]: 79.1% | viability, T/C [23]: 100% | viability, T/C [24]: 90.3% | viability, T/C [25]: 58.4% | viability, T/C [26]: 67.5% | viability, T/C [27]: 61.9% | viability, T/C [28]: 61.8% | viability, T/C [29]: 72.4% | viability, T/C [30]: 50.1% | viability, T/C [31]: 35.6% | viability, T/C [32]: 41.5% | viability, T/C [33]: 31.4% | viability, T/C [34]: 33.7% | viability, T/C [35]: 25.8% | viability, T/C [36]: 14.7%
